Data as given in the supplement of paper PMC4862054.

Columns and labels:
Details in all cases: incubation time: 72 h
MDA-MB-468 [1] = assay: normalised response (% of control), CellTiter-Glo; higher = more viable cells (100 = DMSO, 0 = benzethonium chloride kill control)
Procedure, shortened: (§1)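 Each entry is the normalised signal at a single concentration within a series. The series comprised 5 concentrations in 10-fold steps over a compound-specific 10,000-fold range, placed in 384-well plates into which breast cancer cell lines were seeded as 20 µl suspension and incubated 72 h. CellTox Green (485/520 nm) fluorescence and then CellTiter-Glo luminescence were read, with signals normalised per plate to 0.1 % DMSO (100) and a positive kill control (0).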

HCC1937 [2] = assay: as above
Procedure, shortened: as §1

CAL-85-1 [3] = assay: as above
Procedure, shortened: as §1

MDA-MB-453 [4] = assay: as above
Procedure, shortened: as §1

SK-BR-3 [5] = assay: as above
Procedure, shortened: as §1

HDQ-P1 [6] = assay: as above
Procedure, shortened: as §1

MDA-MB-436 [7] = assay: as above
Procedure, shortened: as §1

CAL-120 [8] = assay: as above
Procedure, shortened: as §1

MCF-10A = assay: as above
Procedure, shortened: as §1

DU-4475 [9] = assay: as above
Procedure, shortened: as §1

BT-474 [10] = assay: as above
Procedure, shortened: as §1

HCC1143 [11] = assay: as above
Procedure, shortened: as §1

MDA-MB-231 [12] = assay: as above
Procedure, shortened: as §1

BT-549 [13] = assay: as above
Procedure, shortened: as §1

Hs578T [14] = assay: as above
Procedure, shortened: as §1

CAL-51 [15] = assay: as above
Procedure, shortened: as §1

HCC1599 [16] = assay: as above
Procedure, shortened: as §1

CAL-148 [17] = assay: as above
Procedure, shortened: as §1

MFM-223 [18] = assay: as above
Procedure, shortened: as §1

MDA-MB-468 [19] = assay: normalised viability (% of control), CellTiter-Blue; higher = more viable cells (100 = DMSO, 0 = benzethonium chloride kill control)
Description: (§2)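 DSRT, CellTiter-Blue viability, 72 h incubation. Signal is normalised to DMSO and benzethonium chloride controls. Value is the normalised response at dose 1.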

HCC1937 [20] = assay: as above
Description: as §2

CAL-85-1 [21] = assay: as above
Description: as §2

MDA-MB-453 [22] = assay: as above
Description: as §2

SK-BR-3 [23] = assay: as above
Description: as §2

HDQ-P1 [24] = assay: as above
Description: as §2

MDA-MB-436 [25] = assay: as above
Description: as §2

CAL-120 [26] = assay: as above
Description: as §2

DU-4475 [27] = assay: as above
Description: as §2

BT-474 [28] = assay: as above
Description: as §2

HCC1143 [29] = assay: as above
Description: as §2

MDA-MB-231 [30] = assay: as above
Description: as §2

BT-549 [31] = assay: as above
Description: as §2

Hs578T [32] = assay: as above
Description: as §2

CAL-51 [33] = assay: as above
Description: as §2

HCC1599 [34] = assay: as above
Description: as §2

CAL-148 [35] = assay: as above
Description: as §2

MFM-223 [36] = assay: as above
Description: as §2

SMILES | normalised response (MDA-MB-468 [1]) [%] | normalised response (HCC1937 [2]) [%] | normalised response (CAL-85-1 [3]) [%] | normalised response (MDA-MB-453 [4]) [%] | normalised response (SK-BR-3 [5]) [%] | normalised response (HDQ-P1 [6]) [%] | normalised response (MDA-MB-436 [7]) [%] | normalised response (CAL-120 [8]) [%] | normalised response (MCF-10A) [%] | normalised response (DU-4475 [9]) [%] | normalised response (BT-474 [10]) [%] | normalised response (HCC1143 [11]) [%] | normalised response (MDA-MB-231 [12]) [%] | normalised response (BT-549 [13]) [%] | normalised response (Hs578T [14]) [%] | normalised response (CAL-51 [15]) [%] | normalised response (HCC1599 [16]) [%] | normalised response (CAL-148 [17]) [%] | normalised response (MFM-223 [18]) [%] | normalised viability (MDA-MB-468 [19]) [%] | normalised viability (HCC1937 [20]) [%] | normalised viability (CAL-85-1 [21]) [%] | normalised viability (MDA-MB-453 [22]) [%] | normalised viability (SK-BR-3 [23]) [%] | normalised viability (HDQ-P1 [24]) [%] | normalised viability (MDA-MB-436 [25]) [%] | normalised viability (CAL-120 [26]) [%] | normalised viability (DU-4475 [27]) [%] | normalised viability (BT-474 [28]) [%] | normalised viability (HCC1143 [29]) [%] | normalised viability (MDA-MB-231 [30]) [%] | normalised viability (BT-549 [31]) [%] | normalised viability (Hs578T [32]) [%] | normalised viability (CAL-51 [33]) [%] | normalised viability (HCC1599 [34]) [%] | normalised viability (CAL-148 [35]) [%] | normalised viability (MFM-223 [36]) [%]
COc1ncc(-c2ccc3nccc(-c4ccnnc4)c3c2)cc1NS(=O)(=O)c1ccc(F)cc1F (0.1 nM) | 100 | 98.2 | 98.1 | 125 | 108 | 99.8 | 97.7 | 98.4 | 120 | 99.8 | 101 | 106 | 104 | 101 | 103 | 112 | 92.1 | 97.9 | 111 | 101 | 100 | 90.2 | 94.3 | 86.9 | 103 | 113 | 81 | 108 | 115 | 89.1 | 92 | 108 | 112 | 93.7 | 83.8 | 99.6 | 91.4
C[C@@]1(C(=O)Nc2ccc(F)nc2)CCCN1c1nc(Nc2cc(C3CC3)n[nH]2)c2cccn2n1 (1 nM) | 93.6 | 88.7 | 93 | 91.9 | 87.3 | 91.2 | 83.9 | 87.5 | 77.6 | 95.2 | 93 | 89 | 94.2 | 95.9 | 95.3 | 95.1 | 90.4 | 83.3 | 87.7 | 107 | 118 | 92.9 | 98.1 | 101 | 95.4 | 122 | 90.9 | 105 | 99 | 92 | 115 | 88.2 | 104 | 99.6 | 102 | 97.1 | 96.1
COc1c(C)cnc(Cn2cnc3c(Cl)nc(N)nc32)c1C [BIIB021] (1 nM) | 101 | 103 | 98.1 | 106 | 93.6 | 95.6 | 99 | 103 | 104 | 103 | 99.1 | 97.6 | 112 | 95.6 | 106 | 74 | 124 | 106 | 102 | 94.6 | 93.4 | 78.1 | 93.9 | 75.8 | 86.4 | 102 | 76.8 | 87.7 | 91.7 | 82.9 | 76.3 | 97.7 | 105 | 101 | 143 | 96.5 | 80.8
CC(C)C[C@H](NC(=O)[C@H](Cc1ccccc1)NC(=O)c1cnccn1)B(O)O [Bortezomib] (0.1 nM) | 89.8 | 96.2 | 95.6 | 103 | 101 | 93.6 | 93.4 | 102 | 113 | 103 | 98.6 | 100 | 101 | 91.5 | 104 | 90.9 | 95.9 | 95.7 | 103 | 91.8 | 82.9 | 104 | 101 | 88.8 | 92.2 | 103 | 98.8 | 129 | 75.1 | 98.8 | 91.9 | 82.3 | 96.4 | 97.3 | 122 | 104 | 101
